Experimental findings from patent US8455665B2, “3-phenoxymethylpyrrolidine compounds” (Theravance, Inc., priority 2009, dated 2013) are described below.

Where two headings read alike, the source gives them in different places. Marks after values point to notes of the source that are not given here. Where only a bound is given, the exact number is not on record here.

In one assay the target is SERT (Homo sapiens, UniProt P31645). The assay can be described thus: fluorescence-based serotonin uptake assay (Tsuruda et al. 2010). The format is cell-based.
For a further assay, the target named is NET (Homo sapiens, UniProt P23975). The assay is described as follows: fluorescence-based norepinephrine uptake assay (Tsuruda et al. 2010). It is filed as cell-based.
Setting [1] is: serotonin reuptake inhibition, fluorescence-based assay (data indicated by an asterisk).
The mark [2] stands for this setting: norepinephrine reuptake inhibition, fluorescence-based assay (data indicated by an asterisk).
Setting [3] is: serotonin reuptake inhibition, fluorescence-based assay (data indicated by an asterisk), read-out: SERT pIC50 (converted).
The mark [4] stands for this setting: norepinephrine reuptake inhibition, fluorescence-based assay (data indicated by an asterisk), read-out: NET pIC50 (converted).

NET, sequence (P23975 whole entry): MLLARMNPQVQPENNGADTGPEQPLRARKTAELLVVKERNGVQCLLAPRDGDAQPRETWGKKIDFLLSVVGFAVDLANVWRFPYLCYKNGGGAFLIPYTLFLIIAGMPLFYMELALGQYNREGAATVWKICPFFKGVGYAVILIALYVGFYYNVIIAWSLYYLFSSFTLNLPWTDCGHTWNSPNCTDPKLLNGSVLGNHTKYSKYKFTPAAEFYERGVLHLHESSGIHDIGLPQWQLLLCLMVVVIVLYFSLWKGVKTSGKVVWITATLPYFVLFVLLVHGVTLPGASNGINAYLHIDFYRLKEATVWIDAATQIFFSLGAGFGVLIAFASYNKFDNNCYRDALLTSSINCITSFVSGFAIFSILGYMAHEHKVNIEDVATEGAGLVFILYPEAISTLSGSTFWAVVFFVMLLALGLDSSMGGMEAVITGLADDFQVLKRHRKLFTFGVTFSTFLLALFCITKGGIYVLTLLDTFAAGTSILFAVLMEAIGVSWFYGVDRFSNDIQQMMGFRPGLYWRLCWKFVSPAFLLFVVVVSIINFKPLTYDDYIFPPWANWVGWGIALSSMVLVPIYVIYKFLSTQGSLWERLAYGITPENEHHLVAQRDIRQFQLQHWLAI
SERT, sequence (P31645 whole entry, species assumed): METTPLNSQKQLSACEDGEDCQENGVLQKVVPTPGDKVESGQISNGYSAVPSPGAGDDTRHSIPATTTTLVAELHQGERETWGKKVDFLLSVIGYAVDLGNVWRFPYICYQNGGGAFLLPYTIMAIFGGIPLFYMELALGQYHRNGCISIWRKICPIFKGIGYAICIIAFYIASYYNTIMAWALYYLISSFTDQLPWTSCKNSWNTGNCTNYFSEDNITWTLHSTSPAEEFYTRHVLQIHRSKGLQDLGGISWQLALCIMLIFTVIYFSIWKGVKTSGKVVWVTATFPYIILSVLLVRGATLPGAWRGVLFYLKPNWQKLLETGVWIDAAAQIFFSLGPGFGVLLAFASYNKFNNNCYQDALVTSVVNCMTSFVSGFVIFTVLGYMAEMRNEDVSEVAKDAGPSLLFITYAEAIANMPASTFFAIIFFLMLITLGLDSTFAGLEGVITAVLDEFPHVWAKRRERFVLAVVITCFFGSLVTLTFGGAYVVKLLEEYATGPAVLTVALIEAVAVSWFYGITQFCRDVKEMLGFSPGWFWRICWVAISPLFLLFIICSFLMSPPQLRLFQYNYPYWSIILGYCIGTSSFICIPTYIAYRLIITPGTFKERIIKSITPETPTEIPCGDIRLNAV

`CSC[C@H](Oc1cccc(Cl)c1C(F)(F)F)[C@H]1CCNC1.O=C(O)C(F)(F)F` [Example 15-7]: at SERT (setting [1]), the “SERT pIC50” value is “≧8.0*”. At NET (setting [2]), the “NET pIC50” value was “≧8.0*”.

As to `CCOC[C@H](Oc1ccc(Cl)cc1F)[C@H]1CCNC1` [Example 7-21, (S)-3-[(R)-1-(4-Chloro-2-fluorophenoxy)-2-ethoxyethyl]pyrrolidine], the IC50 at SERT (setting [3]) and at NET (setting [4]) was ≤ 10 nM throughout.

Take `CCOC[C@H](Oc1ccccc1Cl)[C@H]1CCNC1` [Example 7-1, (S)-3-[(R)-1-(2-Chlorophenoxy)-2-ethoxyethyl]pyrrolidine]: the results for the IC50 on SERT (setting [3]) and on NET (setting [4]) were ≤ 100 nM and ≤ 10 nM, respectively.

As to `CCOC[C@H](Oc1cc(Cl)cc(Cl)c1)[C@H]1CCNC1` [Example 7-27, (S)-3-[(R)-1-(3,5-Dichlorophenoxy)-2-ethoxyethyl]pyrrolidine], the results for the IC50 at SERT (setting [3]) and on NET (setting [4]) were ≤ 100 nM and ≤ 10 nM, respectively.

On to `CSC[C@@H](Oc1ccc(Cl)cc1Cl)[C@H]1CCNC1.O=C(O)C(F)(F)F` [Example 15-12], for which the “SERT pIC50” value at SERT (setting [1]) is “≧8.0*”. Besides, the “NET pIC50” value at NET (setting [2]) was “≧7.0*”.

With `CCOC[C@@H](Oc1cccc(F)c1Cl)[C@H]1CCNC1` [Example 7-10, (S)-3-[(S)-1-(2-Chloro-3-fluorophenoxy)-2-ethoxyethyl]pyrrolidine], the IC50 on SERT (setting [3]) and at NET (setting [4]) was ≤ 10 nM in each case.

With `CCOC[C@H](Oc1cc(F)cc(Cl)c1)[C@H]1CCNC1` [Example 7-28, (S)-3-[(R)-1-(3-Chloro-5-fluorophenoxy)-2-ethoxyethyl]pyrrolidine], the IC50 was ≤ 100 nM at SERT (setting [3]) and ≤ 10 nM on NET (setting [4]).

As to `CSC[C@@H](Oc1c(C)cc(Cl)cc1Cl)[C@H]1CCNC1.O=C(O)C(F)(F)F` [Example 15-13], the “SERT pIC50” value on SERT (setting [1]) is “≧8.0*”. At NET (setting [2]), the “NET pIC50” value was “≧7.0*”.

Take `CCSC[C@@H](Oc1cccc(C(F)(F)F)c1)[C@H]1CCNC1.O=C(O)C(F)(F)F` [Example 17-12]: the “SERT pIC50” value on SERT (setting [1]) is on record as “≧8.0*”. On NET (setting [2]), the “NET pIC50” value was “≧7.0*”.

For the compound `CSC[C@@H](Oc1cccc(C(F)(F)F)c1)[C@H]1CCNC1.O=C(O)C(F)(F)F` [Example 15-10], the “SERT pIC50” value at SERT (setting [1]) was “≧7.0*”. Further, the “NET pIC50” value at NET (setting [2]) was “≧7.0*”.

Consider `CCOC[C@H](Oc1ccc(Cl)c(Cl)c1)[C@H]1CCNC1` [Example 7-24, (S)-3-[(R)-1-(3,4-Dichlorophenoxy)-2-ethoxyethyl]pyrrolidine], for which the IC50 at SERT (setting [3]) was ≤ 10 nM; on NET (setting [4]), ≤ 100 nM.

Consider `CC(C)OC[C@H](Oc1cccc(F)c1Cl)[C@H]1CCNC1` [Example 9-12, (S)-3-[(R)-1-(2-Chloro-3-fluorophenoxy)-2-isopropoxyethyl]pyrrolidine], for which the IC50 on SERT (setting [3]) and on NET (setting [4]) was ≤ 10 nM in each case.

Consider `CCSC[C@@H](Oc1cccc(F)c1Cl)[C@H]1CCNC1.O=C(O)C(F)(F)F` [Example 17-4], for which the “SERT pIC50” value at SERT (setting [1]) is listed as “≧8.0*”. For the same compound, the “NET pIC50” value at NET (setting [2]) was “≧8.0*”.

Consider `CC(C)OC[C@@H](Oc1c(Cl)cccc1Cl)[C@H]1CCNC1` [Example 9-28, (S)-3-[(S)-1-(2,6-Dichlorophenoxy)-2-isopropoxyethyl]pyrrolidine], for which the IC50 at SERT (setting [3]) is ≤ 100 nM; on NET (setting [4]) it was ≤ 10 nM.

Consider `CC(C)SC[C@H](Oc1cccc(F)c1Cl)[C@H]1CCNC1` [Example 19-3, (S)-3-[(R)-1-(2-Chloro-3-fluorophenoxy)-2-isopropylsulfanylethyl]pyrrolidine], for which the IC50 at SERT (setting [3]) and at NET (setting [4]) was ≤ 10 nM in each case.

`CCSC[C@@H](Oc1ccc(Cl)cc1Cl)[C@H]1CCNC1.O=C(O)C(F)(F)F` [Example 17-8]: the “SERT pIC50” value on SERT (setting [1]) is “≧8.0*”. Also, the “NET pIC50” value on NET (setting [2]) is “≧8.0*”.

`CCSC[C@@H](Oc1cccc(Cl)c1C(F)(F)F)[C@H]1CCNC1.O=C(O)C(F)(F)F` [Example 17-14]: at SERT (setting [1]), the “SERT pIC50” value is listed as “≧8.0*”. In addition, the “NET pIC50” value on NET (setting [2]) was “≧7.0*”.

In the case of `Clc1cccc(OC(COCc2ccccc2)C2CCNC2)c1Cl` [Example 10-2, ((S)-3-[(R)-2-Benzyloxy-1-(2,3-dichlorophenoxy)ethyl]pyrrolidine], the IC50 at SERT (setting [3]) and on NET (setting [4]) was ≤ 10 nM each time.

Regarding `CCOC[C@H](Oc1ccc(Cl)c(Cl)c1F)[C@H]1CCNC1` [Example 7-29, (S)-3-[(R)-1-(3,4-Dichloro-2-fluorophenoxy)-2-ethoxyethyl]pyrrolidine], the IC50 on SERT (setting [3]) and on NET (setting [4]) was ≤ 10 nM each time.

Consider `CCOC[C@H](Oc1ccc(Cl)c(F)c1)[C@H]1CCNC1` [Example 7-26, (S)-3-[(R)-1-(4-Chloro-3-fluorophenoxy)-2-ethoxyethyl]pyrrolidine], for which the IC50 on SERT (setting [3]) and on NET (setting [4]) was ≤ 10 nM each time.

With `CC(C)OC[C@H](Oc1ccc(Cl)cc1Cl)[C@H]1CCNC1` [Example 8, (S)-3-[(R)-1-(2,4-Dichlorophenoxy)-2-isopropoxyethyl]pyrrolidine], the IC50 on SERT (setting [3]) and at NET (setting [4]) was ≤ 10 nM throughout.

On to `CCSC[C@H](Oc1ccc(C(F)(F)F)cc1)[C@H]1CCNC1.O=C(O)C(F)(F)F` [Example 17-11], for which, on SERT (setting [1]), the “SERT pIC50” value is listed as “≧8.0*”. Further, at NET (setting [2]), the “NET pIC50” value was “≧8.0*”.

Regarding `CC(C)SC[C@H](Oc1cccc(Cl)c1C(F)(F)F)[C@H]1CCNC1` [Example 18, (S)-3-[(R)-1-(3-Chloro-2-trifluoromethylphenoxy)-2-isopropylsulfanylethyl]pyrrolidine], the IC50 on SERT (setting [3]) and on NET (setting [4]) was ≤ 10 nM in each case.

With `CCOC[C@H](Oc1ccc(F)cc1Cl)[C@H]1CCNC1` [Example 7-18, (S)-3-[(R)-1-(2-Chloro-4-fluorophenoxy)-2-ethoxyethyl]pyrrolidine], the IC50 at SERT (setting [3]) was ≤ 100 nM; at NET (setting [4]) it was ≤ 10 nM.

For the compound `Clc1ccc(OC(COCc2ccccc2)C2CCNC2)c(Cl)c1` [Example 10-3, ((S)-3-[(R)-2-Benzyloxy-1-(2,4-dichlorophenoxy)ethyl]pyrrolidine], the results for the IC50 on SERT (setting [3]) and at NET (setting [4]) were ≤ 10 nM and ≤ 100 nM, respectively.

Turning to `CC(C)OC[C@@H](Oc1cccc(Cl)c1Cl)[C@H]1CCNC1` [Example 9-8, (S)-3-[(S)-1-(2,3-Dichlorophenoxy)-2-isopropoxyethyl]pyrrolidine], the IC50 on SERT (setting [3]) and on NET (setting [4]) was ≤ 10 nM each time.

On to `Cc1cc(Cl)ccc1O[C@H](CO)[C@@H]1CCNC1` (stereo in doubt) [Example 1, (R)-2-(4-Chloro-2-methylphenoxy)-2-(S)-pyrrolidin-3-yl-ethanol], for which the IC50 on SERT (setting [3]) and on NET (setting [4]) was ≤ 10 nM in each case.

Turning to `CSC[C@@H](Oc1cccc(Cl)c1Cl)[C@H]1CCNC1.O=C(O)C(F)(F)F` [Example 15-2], the “SERT pIC50” value at SERT (setting [1]) is “≧8.0*”. Moreover, the “NET pIC50” value at NET (setting [2]) is on record as “≧8.0*”.

Take `OC[C@@H](Oc1cccc(Cl)c1Cl)[C@@H]1CCNC1` (stereo in doubt) [Example 2-2, (R)-2-(2,3-Dichlorophenoxy)-2-(S)-pyrrolidin-3-yl-ethanol]: the IC50 at SERT (setting [3]) was ≤ 100 nM; at NET (setting [4]), ≤ 10 nM.

With `CCSC[C@H](Oc1ccc(Cl)cc1C(F)(F)F)[C@H]1CCNC1.O=C(O)C(F)(F)F` [Example 17-13], on SERT (setting [1]), the “SERT pIC50” value is “≧8.0*”. Moreover, the “NET pIC50” value at NET (setting [2]) is “≧8.0*”.

Regarding `CCSC[C@H](Oc1cccc(Cl)c1C(F)(F)F)[C@H]1CCNC1` [Example 16, (S)-3-[(R)-1-(3-Chloro-2-trifluoromethylphenoxy)-2-ethylsulfanylethyl]-pyrrolidine], the IC50 on SERT (setting [3]) and at NET (setting [4]) was ≤ 10 nM in each case.

As for `CC(C)OC[C@@H](Oc1cccc(Cl)c1C(F)(F)F)[C@H]1CCNC1` [Example 9-19, (S)-3-[(S)-1-(3-Chloro-2-trifluoromethylphenoxy)-2-isopropoxyethyl]pyrrolidine], the IC50 on SERT (setting [3]) and at NET (setting [4]) was ≤ 10 nM in each case.

Take `CSC[C@@H](Oc1ccc(F)c(F)c1F)[C@H]1CCNC1.O=C(O)C(F)(F)F` [Example 15-14]: at SERT (setting [1]), the “SERT pIC50” value is reported as “≧7.0*”. The “NET pIC50” value on NET (setting [2]) was “≧8.0*”.

`CSC[C@H](Oc1cccc(C(F)(F)F)c1)[C@H]1CCNC1.O=C(O)C(F)(F)F` [Example 15-9]: on SERT (setting [1]), the “SERT pIC50” value was “≧7.0*”. Besides, the “NET pIC50” value on NET (setting [2]) is “≧7.0*”.

For the compound `CCOC[C@H](Oc1cccc(C(F)(F)F)c1F)[C@H]1CCNC1` [Example 7-12, (S)-3-[(R)-2-Ethoxy-1-(2-fluoro-3-trifluoromethylphenoxy)ethyl]pyrrolidine], the IC50 at SERT (setting [3]) and at NET (setting [4]) was ≤ 100 nM each time.

On to `Cc1cc(Cl)ccc1O[C@@H](COCc1ccccc1)[C@H]1CCNC1.O=C(O)C(F)(F)F` [Prep 3], for which the “SERT pIC50” value at SERT (setting [1]) is “≧8.0*”. Besides, on NET (setting [2]), the “NET pIC50” value is “≧8.0*”.

Turning to `CCSC[C@H](Oc1cccc(F)c1Cl)[C@H]1CCNC1.O=C(O)C(F)(F)F` [Example 17-3], at SERT (setting [1]), the “SERT pIC50” value is “≧8.0*”. For the same compound, the “NET pIC50” value on NET (setting [2]) is given as “≧8.0*”.

With `CCOC[C@@H](Oc1ccc(C#N)c(Cl)c1)[C@@H]1CCNC1` (stereo in doubt) [Example 7-25, 2-Chloro-4-((R)-2-ethoxy-1-(S)-pyrrolidin-3-ylethoxy)benzonitrile], the IC50 on SERT is ≤ 10 nM; against NET, ≤ 100 nM.

For `CCOC[C@H](Oc1cccc(Cl)c1C(F)(F)F)[C@H]1CCNC1` [Example 7-15, (S)-3-[(R)-1-(3-Chloro-2-trifluoromethylphenoxy)-2-ethoxyethyl]pyrrolidine], the IC50 at SERT (setting [3]) and on NET (setting [4]) was ≤ 10 nM in each case.

In the case of `CCOC[C@@H](Oc1ccc(C#N)cc1Cl)[C@@H]1CCNC1` (stereo in doubt) [Example 7-20, 3-Chloro-4-((R)-2-ethoxy-1-(S)-pyrrolidin-3-ylethoxy)benzonitrile], the IC50 at SERT (setting [3]) is ≤ 10 nM; at NET (setting [4]), ≤ 100 nM.

In the case of `CSC[C@H](Oc1ccc(Cl)cc1Cl)[C@H]1CCNC1.O=C(O)C(F)(F)F` [Example 15-11], the “SERT pIC50” value at SERT (setting [1]) is “≧8.0*”. Also, the “NET pIC50” value on NET (setting [2]) is reported as “≧8.0*”.

Take `CSC[C@H](Oc1cccc(F)c1Cl)[C@H]1CCNC1.O=C(O)C(F)(F)F` [Example 15-3]: the “SERT pIC50” value on SERT (setting [1]) was “≧8.0*”. On NET (setting [2]), the “NET pIC50” value is “≧8.0*”.
